Where two headings read alike, the source gives them in different places.

In general, IC50 refers to the concentration needed to halve the response being measured.

In one data set the test system is P. falciparum 3D7. Briefly: In-vitro inhibition potency against Plasmodium falciparum, 72 hours, nucleic acid dye. Type of data set: cell-based. How it is done: (§1) The volume was filled up to 1 L with ultrapure water, the pH adjusted to 7.2, subjected to sterilized filtration by using a 0.22 μm filtration membrane, and stored at 4° C. to obtain a complete culture medium; the incomplete medium was composed of 10.43 g of 1640 dry powder (GIBCO, 31800022), 5.96 g of Hepes, 2 g of sodium bicarbonate, 0.292 g of L-glutamine, 3.96 g of glucose, […] of hypoxanthine and 2.5 mg of gentamicin, prepared by the same method as for the complete culture medium. • (2) Drugs and formulations: pure decoquinate was dissolved in DMSO as a stock solution, chloroquine was dissolved in PBS, and artemisinin was dissolved in DMSO and then diluted with PBS. […] Before the experiment, all the above dissolved drug solutions were then diluted to series of 10 gradient concentrations with the incomplete medium. • (3) Culture and assay method: Plasmodium falciparum was cultured in the complete culture medium, and human red blood cells (RBC) were preserved in the incomplete culture medium. […] The culture was incubated at 37° C. in 5% CO2 for 72 hours, then nucleic acid dye was added, and the […] measured in a microplate reader. The half-maximal inhibitory concentration (IC50) of drugs was calculated with Graph Pad software, that is, the concentration when the inhibition rate of antimalarial drugs to P. falciparum reached 50% was calculated.

The subject of another data set is P. falciparum Dd2. Described as above. In kind it is cell-based. How it is done: as §1
For data set [1] the following is noted: cited from earlier work.
[2] abbreviates: 3D7, chloroquine-sensitive strain, liposome values are decoquinate concentrations, read-out: IC50 P. falciparum 3d7 Mean ± S.D.
The mark [3] stands for this setting: DD2, multidrug-resistant (including chloroquine) strain, liposome values are decoquinate concentrations, read-out: IC50 P. falciparum Dd2 Mean ± S.D.

On to `C[C@@H]1CC[C@H]2[C@@H](C)C(=O)O[C@@H]3O[C@@]4(C)CC[C@@H]1[C@]32OO4` [Artemisinin, artemisinin], for which the IC50 in the data set with P. falciparum 3D7 (setting [2]) was 16.4 ± 5.8 nM; in the data set on P. falciparum Dd2 (setting [3]), 18.5 ± 0.5 nM.

Take `CCN(CC)CCCC(C)Nc1ccnc2cc(Cl)ccc12` (centres unmarked) [Chloroquine, chloroquine]: the IC50 in the data set with P. falciparum 3D7 (3D7, read-out: IC50 P. falciparum 3d7 Mean ± S.D.) stood at 23.75 ± 0.06 nM; in the data set on P. falciparum Dd2 (DD2, read-out: IC50 P. falciparum Dd2 Mean ± S.D.) it was 185 ± 16.2 nM.

For `CCCCCCCCCCOc1cc2c(O)c(C(=O)OCC)cnc2cc1OCC` [Pure DQ, ethyl 6-decyloxy-7-ethoxy-4-hydroxyquinoline-3-carboxylate], the values for the IC50 with P. falciparum 3D7 (setting [2]) and in the data set with P. falciparum Dd2 (setting [3]) were 1.63 ± 0.13 nM and 1.57 ± 0.49 nM, respectively. Besides, the Solubility in ethanol result in data set [1] (ethanol) is listed as “slightly soluble”. In data set [1] (water), the Solubility in water result is listed as “practically insoluble”.

The values are drawn from patent publication US20240108580A1, “DECOQUINATE LIPOSOME, PREPARATION METHOD THEREFOR AND USE THEREOF” (CAS LAMVAC (GUANGZHOU) BIOMEDICAL TECHNOLOGY CO.,LTD., priority 2019, published 2024).
